Measurements: ChEMBL document CHEMBL3400079 (Bioorg Med Chem, 2015)
pKi: −log10 of the molar value.

Biological target: T1, AGAP002992-PA (Anopheles gambiae, UniProt Q5TU56)
T1 sequence (Q5TU56 whole entry): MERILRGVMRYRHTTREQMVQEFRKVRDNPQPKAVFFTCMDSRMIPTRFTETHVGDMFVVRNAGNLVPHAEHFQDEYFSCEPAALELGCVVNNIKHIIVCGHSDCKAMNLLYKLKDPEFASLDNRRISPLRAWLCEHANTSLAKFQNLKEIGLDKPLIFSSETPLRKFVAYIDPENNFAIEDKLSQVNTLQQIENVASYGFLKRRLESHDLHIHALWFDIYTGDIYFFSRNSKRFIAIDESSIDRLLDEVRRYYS
Description: Inhibition of Anopheles gambiae carbonic anhydrase pre-incubated for 15 mins by stopped-flow CO2 hydration assay

Compound | pKi
NCc1ccc(S(N)(=O)=O)cc1 [MAFENIDE] | 4.87
Nc1cc(Cl)c(S(N)(=O)=O)cc1S(N)(=O)=O | 6.12
Nc1ccc(S(N)(=O)=O)cc1Br | 6.07
Nc1ccc(S(N)(=O)=O)cc1 [SULFANILAMIDE] | 6.06
NS(=O)(=O)c1cc(Cl)cc(Cl)c1O | 5.19
Nc1cccc(S(N)(=O)=O)c1 | 6.05
Nc1nnc(S(N)(=O)=O)s1 | 6.13
CCN[C@H]1CN(CCCOC)S(=O)(=O)c2sc(S(N)(=O)=O)cc21 [BRINZOLAMIDE] | 7.50
NS(=O)(=O)c1ccc(CO)cc1 | < 4.00
CC1(C)O[C@@H]2[C@@H](CO[C@@]3(COS(N)(=O)=O)OC(C)(C)O[C@@H]23)O1 [TOPIRAMATE] | < 4.00
CCOc1ccc2nc(S(N)(=O)=O)sc2c1 [ETHOXZOLAMIDE] | 6.73
Nc1ccc(S(N)(=O)=O)cc1F | 6.04
Cn1nc(S(N)(=O)=O)sc1=N | 5.77
Nc1cc(C(F)(F)F)c(S(N)(=O)=O)cc1S(N)(=O)=O [2,4-DISULFAMYLTRIFLUOROMETHYLANILINE] | 5.36
Nc1ccc(S(N)(=O)=O)cc1Cl | 4.91
NS(=O)(=O)c1ccc(O)cc1 | < 4.00
Cc1ccc(S(N)(=O)=O)cc1 [P-TOLUENESULFONAMIDE] | 4.91
O=C1NS(=O)(=O)c2ccccc21 [SACCHARIN] | 7.02
NS(=O)(=O)c1ccc(CCO)cc1 | < 4.00
NCCc1ccc(S(N)(=O)=O)cc1 | 6.08

Now from value to compound:

pKi | Compound
6.76 | Cc1ccc(-c2cc(C(F)(F)F)nn2-c2ccc(S(N)(=O)=O)cc2)cc1 [CELECOXIB]
8.01 | NS(=O)(=O)c1nnc(NS(=O)(=O)c2ccccc2)s1 [BENZOLAMIDE]
8.17 | Nc1ccc(S(=O)(=O)Nc2nnc(S(N)(=O)=O)s2)cc1
7.33 | Nc1ccc(S(=O)(=O)NCCc2ccc(S(N)(=O)=O)cc2)cc1
8.21 | NS(=O)(=O)c1ccc(CCNS(=O)(=O)c2ccc([N+](=O)[O-])cc2CO)cc1
4.97 | Nc1nccc(Nc2ccc(S(N)(=O)=O)cc2)n1
6.65 | NS(=O)(=O)c1ccc(S(=O)(=O)Nc2cccc3c(Cl)c[nH]c23)cc1
7.09 | Nc1ccc(S(=O)(=O)NCc2ccc(S(N)(=O)=O)cc2)cc1
7.08 | Nc1ccc(S(=O)(=O)Nc2ccc(S(N)(=O)=O)cc2)cc1
6.07 | NS(=O)(=O)c1cccc(S(N)(=O)=O)c1
